US12115154B2, “Compounds for the modulation of proprotein convertase subtilisin/kexin type 9 (PCSK9)” (SRX Cardio, LLC, priority 2020, dated 2024)

Assays:
[1] = Dissolution in dosing solution; assay type: physicochemical; details: 1% Tween-80 aqueous solution, 10-15 minutes sonication
Method: (§1) A representative compound (Compound 1041) was tested for oral bioavailability and efficacy in mice. Male C57BL/6 mice were purchased from Taconic Biosciences (Rensselaer, New York) and housed under standard conditions with the exception of being provided a high fat diet (#TD.90221, Envigo, Madison, Wis.) and water ad libitum. Following 4 weeks of diet acclimation the animals were then dosed with compound or vehicle as control specimens. Compound readily dissolved at 1.5 mg/ml in a 1% Tween-80 aqueous solution with 10-15 minutes sonication. This solution was used at the 1.5 mg/ml concentration for oral (PO) dosing or further diluted with sterile saline for intravenous (IV) dosing.

Male C57BL/6 mice [2] = experiment: Liver panel (animal health) in high fat diet mice; assay type: in vivo
Method: as §1
To assess animal health following compound exposure, a liver panel (Test Code #60405) was tested by IDEXX BioAnalytics (North Grafton, Mass.). […] Also of note, AST and ALT levels in the liver panel were elevated in the PO vehicle, which is attributed to the high fat diet used in the study (Envigo, #TD.90221).

[3] = In vivo PK in mice (IV and PO); details: male, C57BL/6, mouse, plasma, 3 mg/kg IV versus 15 mg/kg PO, read-out: oral bioavailability (F %)
Method: as §1
Test animals received a single dose at 3 mg/kg by IV or 15 mg/kg by PO while control animals received an equal volume of vehicle control by IV or PO, respectively. Plasma samples were collected at 0.25, […], 1, 2, 3, 6, 8, 24, and 48 hours while liver specimens were collected at 8, 24, and 48 hours and drug concentration were measured by LC-MS/MS per standard protocols.
In brief, blood was immediately centrifuged, and the resulting plasma was frozen and stored at −80° C. until analysis. […] Compound concentrations were determined by a liquid chromatography-mass tandem spectrometry (LC-MS/MS) per routine method (Quintana Discovery, Hayward, Calif.) following the standard protocol. […]

Male C57BL/6 mice [4] = experiment: In vivo efficacy: serum LDL in high fat diet mice; details: for reduction in LDL: daily PO 15 mg/kg
Method: as §1
[…] Plasma samples were collected at 0.25, […], 1, 2, 3, 6, 8, 24, and 48 hours while liver specimens were collected at 8, 24, and 48 hours and drug concentration were measured by LC-MS/MS per standard protocols.
Serum lipid levels were measured using commercially available veterinary health testing services provided by IDEXX BioAnalytics (North Grafton, Mass.). Blood specimens were collected from the animals and the resulting serum was frozen and stored at −80° C. until analysis. Specimens were measured using the commercial service's standard procedures for the Rodent Lipid Panel (Test Code #6290).

PCSK9 = biological target: T1, PCSK9 (Homo sapiens, UniProt Q8NBP7); experiment: Biodesy Direct Binding Measurement (second harmonic generation); details: Biodesy Delta System
T1 construct: purchased Cayman Chemical 20631; host or cells: added to HepG2, HuH7, FL83B or shPCSK9 knock-down lines
T1 sequence (Q8NBP7 153-692): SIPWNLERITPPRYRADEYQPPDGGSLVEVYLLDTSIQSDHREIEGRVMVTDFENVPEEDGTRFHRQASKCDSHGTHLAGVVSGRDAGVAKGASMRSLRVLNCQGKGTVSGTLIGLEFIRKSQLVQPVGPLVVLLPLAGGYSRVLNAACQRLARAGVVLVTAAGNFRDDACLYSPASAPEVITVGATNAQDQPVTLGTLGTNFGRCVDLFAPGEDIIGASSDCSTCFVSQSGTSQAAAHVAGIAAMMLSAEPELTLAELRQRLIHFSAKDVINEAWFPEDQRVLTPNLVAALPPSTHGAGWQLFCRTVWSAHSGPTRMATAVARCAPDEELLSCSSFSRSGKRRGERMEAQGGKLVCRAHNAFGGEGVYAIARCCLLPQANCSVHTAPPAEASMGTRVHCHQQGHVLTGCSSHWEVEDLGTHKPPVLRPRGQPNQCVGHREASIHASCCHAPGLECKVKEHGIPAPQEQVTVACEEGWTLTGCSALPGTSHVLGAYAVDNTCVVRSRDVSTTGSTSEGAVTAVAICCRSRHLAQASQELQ
From the text: The compounds of the present disclosure may be tested for binding to, inhibition of, and/or modulation of PCSK9 activity according to the following protocols.
Direct binding can be measured using the commercially available Biodesy Delta System (BDS, http://www.biodesy.com/products/; accessed Aug. 1, 2018). The BDS is a laser-based approach that utilizes second harmonic generation from a labeled protein to detect ligand binding, the method of which is covered and described by U.S. Pat. Nos. 9,395,358 and 8,932,822, and has been commercialized by Biodesy Inc. (South San Francisco, Calif.).

[5] = daily 15 mg/kg PO, 72-hour group, versus vehicle control

SMILES	concentration readily dissolved [1]	reduction in ALT levels (Male C57BL/6 mice [2]; [5])	reduction in AST levels (Male C57BL/6 mice [2]; [5])	liver panel toxicity (Male C57BL/6 mice [2]; three daily 15 mg/kg PO doses, 72 hours, versus PO vehicle)	bioavailability [3]	reduction in LDL (Male C57BL/6 mice [4]; at 48 hours (dosed at t=0 and t=24 hours))	reduction in LDL (Male C57BL/6 mice [4]; at 72 hours (dosed at t=0, t=24, t=48 hours))	reduction in LDL relative to IV vehicle control group (Male C57BL/6 mice [4]; single 3 mg/kg IV dose, 48 hours after dosing)	reduction in LDL relative to PO vehicle control group (Male C57BL/6 mice [4]; single 15 mg/kg PO dose, 48 hours after dosing)	ASHG (PCSK9)
Cc1cc(-c2ccc(F)cc2)ccc1C1CCCN(C2CCCC2)C1 (stereo not shown) [Compound 1.041, 1-cyclopentyl-3-(4′-fluoro-3-methyl-[1,1′-biphenyl]-4-yl)piperidine]	≥ 1500 µg/mL	77.7%	72.1%	no overt toxicity	44%	32%	50%	19%	32%	–
Fc1ccc(-c2ccc(C3CCCN(CC4CC4)C3)cc2)cc1 (stereo not shown) [Compound 1.001, 1-(cyclopropylmethyl)-3-(4′-fluoro-[1,1′-biphenyl]-4-yl)piperidine]	–	–	–	–	–	–	–	–	–	> 10%
